Tests used:
[1] = target: Replicase polyprotein 1ab (Severe acute respiratory syndrome coronavirus 2, UniProt P0DTD1); experiment: Inhibition of SARS-CoV-2 PLPro
[2] = Cytotoxicity against African green monkey Vero E6 cells assessed as cell viability at 10 uM measured after 48 hrs by MTT assay relative to control; assay type: toxicity, cell-based, Vero C1008; details: chlorocebus sabaeus, read-out: Activity
[3] = Cytotoxicity against human HEK293 cells assessed as cell viability measured after 48 hrs by MTT assay; assay type: toxicity, cell-based

Compound | IC50 [1] | viability at 48 h, 10 µM [2] | IC50 at 48 h [3]
O=C(O)c1cc(F)c2nc(N3[C@@H]4CC[C@H]3C[C@@H](OCc3c(-c5ccccc5OC(F)(F)F)noc3C3CC3)C4)sc2c1 [TROPIFEXOR] | 5.11 µM |  | 
COc1cccc2c1C(=O)c1c(O)c3c(c(O)c1C2=O)C[C@@](O)(C(=O)CO)C[C@@H]3O[C@H]1C[C@H](N)[C@H](O)[C@H](C)O1 [DOXORUBICIN] |  | 38.2% | 8.23 µM

Source: ChEMBL document CHEMBL6177963, “Development of acylhydrazone linked thiazoles as non-covalent dual inhibitors of SARS-CoV-2 proteases” (Eur J Med Chem, 2025)
